# Experimental data from PubChem BioAssay AID248 (DTP/NCI, 2004).
# Where “and” joins values, the source holds several entries; their conditions need not be identical. Equal values may be shown once. Toxic doses and inconclusive results are not listed.
# Tested on: L1210 leukemia ip in BDF1 mice, survival T/C
# Experiment: NCI In Vivo Anticancer Drug Screen. Data for tumor model L1210 Leukemia (intraperitoneal) in B6D2F1 (BDF1) mice
# Conditions: endpoint: mean survival time, higher = longer survival
# In short: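 Survival endpoint. Drug-treated group vs vehicle group, expressed as T divided by C. Tumor passaged by transplantation.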
# [1] = dose: 25.0 mg/kg/injection, schedule: Q04DX002 (ip), vehicle: saline with Tween-80
# [2] = dose: 50.0 mg/kg/injection, schedule: Q04DX002 (ip), vehicle: saline with Tween-80
# [3] = dose: 100.0 mg/kg/injection, schedule: Q04DX002 (ip), vehicle: saline with Tween-80
# [4] = dose: 100.0 mg/kg/injection, schedule: Q01DX001 (ip), vehicle: carboxymethylcellulose (CMC)
# [5] = dose: 200.0 mg/kg/injection, schedule: Q01DX001 (ip), vehicle: carboxymethylcellulose (CMC)
# [6] = dose: 400.0 mg/kg/injection, schedule: Q01DX001 (ip), vehicle: carboxymethylcellulose (CMC)
# [7] = dose: 100.0 mg/kg/injection, schedule: Q04DX003 (ip), vehicle: saline with Tween-80
# [8] = dose: 200.0 mg/kg/injection, schedule: Q04DX003 (ip), vehicle: saline with Tween-80
# [9] = dose: 400.0 mg/kg/injection, schedule: Q04DX003 (ip), vehicle: saline with Tween-80
# [10] = dose: 100.0 mg/kg/injection, schedule: Q04DX003 (ip), vehicle: Klucel (hydroxypropylcellulose) (HPC)
# [11] = dose: 200.0 mg/kg/injection, schedule: Q04DX003 (ip), vehicle: Klucel (hydroxypropylcellulose) (HPC)
# [12] = dose: 400.0 mg/kg/injection, schedule: Q04DX003 (ip), vehicle: Klucel (hydroxypropylcellulose) (HPC)
# [13] = dose: 200.0 mg/kg/injection, schedule: Q04DX002 (ip), vehicle: Klucel (hydroxypropylcellulose) (HPC)
# [14] = dose: 50.0 mg/kg/injection, schedule: Q01DX001 (ip), vehicle: carboxymethylcellulose (CMC)
# [15] = dose: 100.0 mg/kg/injection, schedule: Q01DX009 (ip), vehicle: saline with Tween-80
# [16] = dose: 200.0 mg/kg/injection, schedule: Q01DX009 (ip), vehicle: saline with Tween-80
# [17] = dose: 100.0 mg/kg/injection, schedule: Q01DX009 (ip), vehicle: Klucel (hydroxypropylcellulose) (HPC)
# [18] = dose: 200.0 mg/kg/injection, schedule: Q01DX009 (ip), vehicle: Klucel (hydroxypropylcellulose) (HPC)
# [19] = dose: 400.0 mg/kg/injection, schedule: Q01DX009 (ip), vehicle: Klucel (hydroxypropylcellulose) (HPC)
compound,measurement,setting,value
CC(C)=CCCC(C)C/C=N\N=C(N)N (stereo unspecified),T/C,"dose: 15.0 mg/kg/injection, schedule: Q01DX Z (ip), vehicle: carboxymethylcellulose (CMC)",95 % of control
same,T/C,"dose: 30.0 mg/kg/injection, schedule: Q01DX Z (ip), vehicle: carboxymethylcellulose (CMC)",98 % of control
same,T/C,"dose: 30.0 mg/kg/injection, schedule: Q01DX Z (oral), vehicle: carboxymethylcellulose (CMC)",118 % of control
same,T/C,"dose: 60.0 mg/kg/injection, schedule: Q01DX Z (ip), vehicle: carboxymethylcellulose (CMC)",97 % of control
same,T/C,"dose: 60.0 mg/kg/injection, schedule: Q01DX Z (oral), vehicle: carboxymethylcellulose (CMC)",101 % of control
same,T/C,"dose: 120.0 mg/kg/injection, schedule: Q01DX Z (oral), vehicle: carboxymethylcellulose (CMC)",97 % of control
same,T/C,"dose: 240.0 mg/kg/injection, schedule: Q01DX Z (oral), vehicle: carboxymethylcellulose (CMC)",101 % of control
COc1ccc(NC(=O)Nc2ccc(Cl)cc2OC)cc1,T/C,[1],93 % of control
same,T/C,[2],96 % of control
same,T/C,[3],89 % of control
S=C([S-])N1CCOCC1.S=C([S-])N1CCOCC1.[Zn],T/C,"dose: 4.68 mg/kg/injection, schedule: Q01DX009 (ip), vehicle: saline",90 % of control
same,T/C,"dose: 9.37 mg/kg/injection, schedule: Q01DX009 (ip), vehicle: saline",86 % of control
same,T/C,"dose: 18.75 mg/kg/injection, schedule: Q01DX009 (ip), vehicle: saline",91 % of control
same,T/C,"dose: 18.75 mg/kg/injection, schedule: Q04DX003 (ip), vehicle: saline",100 % of control
same,T/C,"dose: 37.5 mg/kg/injection, schedule: Q04DX003 (ip), vehicle: saline",100 % of control
same,T/C,"dose: 75.0 mg/kg/injection, schedule: Q01DX001 (ip), vehicle: saline",90 % of control
COc1ccc(-c2c3c(cc4cc(OC)c(OC)cc24)C(=O)OC3=O)cc1OC,T/C,[4],93 % of control
same,T/C,[5],89 % of control
same,T/C,[6],89 % of control
CC(C)NC(=O)C1C2CC3OC(=O)C1C3C2 (stereo unspecified),T/C,"dose: 100.0 mg/kg/injection, schedule: Q04DX003 (ip), vehicle: saline",98 % of control
same,T/C,"dose: 200.0 mg/kg/injection, schedule: Q04DX003 (ip), vehicle: saline",98 % of control and 88 % of control
same,T/C,"dose: 400.0 mg/kg/injection, schedule: Q04DX003 (ip), vehicle: saline",101 % of control and 95 % of control
CC(=O)C(c1ccccc1)(c1ccccc1)c1ccccc1,T/C,[7],96 % of control
same,T/C,[8],93 % of control
same,T/C,[9],91 % of control
CCCCNC(=O)NC/C(Br)=C/Br,T/C,"dose: 75.0 mg/kg/injection, schedule: Q01DX009 (ip), vehicle: Klucel (hydroxypropylcellulose) (HPC)",101 % of control
same,T/C,[10],98 % of control
same,T/C,"dose: 150.0 mg/kg/injection, schedule: Q01DX009 (ip), vehicle: Klucel (hydroxypropylcellulose) (HPC)",100 % of control
same,T/C,[11],96 % of control
same,T/C,"dose: 300.0 mg/kg/injection, schedule: Q01DX009 (ip), vehicle: Klucel (hydroxypropylcellulose) (HPC)",97 % of control
same,T/C,[12],93 % of control
Cc1cccc(NCC(=O)NN)c1,T/C,"dose: 100.0 mg/kg/injection, schedule: Q04DX002 (ip), vehicle: Klucel (hydroxypropylcellulose) (HPC)",100 % of control
same,T/C,[13],115 % of control
COc1cc(NC(=O)Nc2cccc(Cl)c2)c(OC)cc1Cl,T/C,[1],99 % of control
same,T/C,[2],99 % of control
same,T/C,[3],96 % of control
Cc1nc(N)[nH]c(=O)c1CCCNS(=O)(=O)c1ccc(C(=O)O)cc1,T/C,[13],88 % of control
same,T/C,"dose: 400.0 mg/kg/injection, schedule: Q04DX002 (ip), vehicle: Klucel (hydroxypropylcellulose) (HPC)",112 % of control
O=NN1C(=O)N[C@@H]2[C@H]1CS[C@@H]2CCCCC(=O)O,T/C,[14],101 % of control
same,T/C,[4],96 % of control
same,T/C,[5],101 % of control
same,T/C,"dose: 300.0 mg/kg/injection, schedule: Q01DX001 (ip), vehicle: carboxymethylcellulose (CMC)",95 % of control
same,T/C,[6],95 % of control
same,T/C,"dose: 600.0 mg/kg/injection, schedule: Q01DX001 (ip), vehicle: carboxymethylcellulose (CMC)",87 % of control
same,T/C,"dose: 800.0 mg/kg/injection, schedule: Q01DX001 (ip), vehicle: carboxymethylcellulose (CMC)",90 % of control
CC(C)C(Br)C(Br)c1ccccc1 (stereo unspecified),T/C,"dose: 50.0 mg/kg/injection, schedule: Q01DX009 (ip), vehicle: saline with Tween-80",96 % of control
same,T/C,[15],102 % of control
same,T/C,[16],96 % of control
O=C1CCC(c2ccccc2)=NN1c1ccccc1,T/C,[17],96 % of control
same,T/C,[18],90 % of control
same,T/C,[19],96 % of control
C=CC(COC(C)=O)N1CC1 (stereo unspecified) (tested in a mixture with another compound),T/C,"dose: 30.0 mg/kg/injection, schedule: Q04DX003 (ip), vehicle: saline",166 % of control
same,T/C,"dose: 60.0 mg/kg/injection, schedule: Q04DX003 (ip), vehicle: saline",107 % of control
O=C1c2cccc3cccc(c23)C(=O)N1CC1CCCO1 (stereo unspecified),T/C,[17],94 % of control
same,T/C,[18],94 % of control
same,T/C,[19],87 % of control
Cc1ccc(C[P+](c2ccccc2)(c2ccccc2)c2ccccc2)cc1,T/C,"dose: 2.0 mg/kg/injection, schedule: Q01DX015 (ip), vehicle: saline",97 % of control
same,T/C,"dose: 4.0 mg/kg/injection, schedule: Q01DX015 (ip), vehicle: saline",100 % of control
same,T/C,"dose: 5.0 mg/kg/injection, schedule: Q01DX001 (ip), vehicle: saline",102 % of control
same,T/C,"dose: 8.0 mg/kg/injection, schedule: Q01DX015 (ip), vehicle: saline",100 % of control
same,T/C,"dose: 10.0 mg/kg/injection, schedule: Q01DX001 (ip), vehicle: saline",104 % of control
same,T/C,"dose: 20.0 mg/kg/injection, schedule: Q01DX001 (ip), vehicle: saline",93 % of control
same,T/C,"dose: 40.0 mg/kg/injection, schedule: Q01DX001 (ip), vehicle: saline",96 % of control
CC1CC(C)(C)S(=O)(=O)O1 (stereo unspecified),T/C,[14],107 % of control
same,T/C,[4],98 % of control
same,T/C,[5],109 % of control
same,T/C,[6],102 % of control
Clc1ccc(C2c3ccccc3C[n+]3ccccc32)cc1 (stereo unspecified),T/C,"dose: 6.25 mg/kg/injection, schedule: Q01DX009 (ip), vehicle: Klucel (hydroxypropylcellulose) (HPC)",102 % of control
same,T/C,"dose: 12.5 mg/kg/injection, schedule: Q01DX009 (ip), vehicle: Klucel (hydroxypropylcellulose) (HPC)",104 % of control
same,T/C,"dose: 25.0 mg/kg/injection, schedule: Q01DX009 (ip), vehicle: Klucel (hydroxypropylcellulose) (HPC)",109 % of control
same,T/C,"dose: 35.0 mg/kg/injection, schedule: Q01DX009 (ip), vehicle: Klucel (hydroxypropylcellulose) (HPC)",112 % of control
CNC(c1ccncc1)C(NC)c1ccncc1 (stereo unspecified),T/C,[17],94 % of control
same,T/C,[10],95 % of control
same,T/C,[18],91 % of control
same,T/C,[11],95 % of control
same,T/C,[19],96 % of control
same,T/C,[12],95 % of control
CCOc1ccccc1NC(=O)C(Br)C(Br)C(=O)O (stereo unspecified),T/C,[15],96 % of control
same,T/C,[7],100 % of control
same,T/C,[16],97 % of control
same,T/C,[8],95 % of control
same,T/C,"dose: 400.0 mg/kg/injection, schedule: Q01DX009 (ip), vehicle: saline with Tween-80",96 % of control
same,T/C,[9],101 % of control
CC(=O)NC1CCCC(C)C1 (stereo unspecified),T/C,[15],101 % of control
same,T/C,[16],106 % of control
COc1cc2ccc(C(C)NCC#N)cc2cc1OC (stereo unspecified),T/C,[17],97 % of control
same,T/C,[10],88 % of control
same,T/C,[18],101 % of control
same,T/C,[11],93 % of control
same,T/C,[12],106 % of control
O=C(O)c1ccccc1/C=N/NC(=O)C(O)(c1ccccc1)c1ccccc1,T/C,[4],114 % of control
same,T/C,[5],101 % of control
same,T/C,[6],103 % of control
S=C(c1cccs1)N1CCOCC1,T/C,"dose: 100.0 mg/kg/injection, schedule: Q04DX003 (ip), vehicle: gum acacia",93 % of control
same,T/C,"dose: 200.0 mg/kg/injection, schedule: Q04DX003 (ip), vehicle: gum acacia",100 % of control
same,T/C,"dose: 400.0 mg/kg/injection, schedule: Q04DX003 (ip), vehicle: gum acacia",91 % of control
